Results: publication PMC6881293, “Nanomolar-potency ‘co-potentiator’ therapy for cystic fibrosis caused by a defined subset of minimal function CFTR mutants” (Scientific Reports, 2019)

Columns and labels:
Format in all cases: cell-based
W1282X-CFTR [1] = molecular target: T1, W1282X-CFTR (Homo sapiens, UniProt P13569); test: Short-circuit current in FRT cells expressing W1282X-CFTR; settings: VX-809-corrected W1282X-CFTR-expressing FRT cells; for increase in VX-770 current: forskolin and 5 μM VX-770; for EC50: in the presence of forskolin and 5 μM VX-770
T1 construct: expressed in transfected cells
T1 sequence (P13569 1-1281 limits assumed): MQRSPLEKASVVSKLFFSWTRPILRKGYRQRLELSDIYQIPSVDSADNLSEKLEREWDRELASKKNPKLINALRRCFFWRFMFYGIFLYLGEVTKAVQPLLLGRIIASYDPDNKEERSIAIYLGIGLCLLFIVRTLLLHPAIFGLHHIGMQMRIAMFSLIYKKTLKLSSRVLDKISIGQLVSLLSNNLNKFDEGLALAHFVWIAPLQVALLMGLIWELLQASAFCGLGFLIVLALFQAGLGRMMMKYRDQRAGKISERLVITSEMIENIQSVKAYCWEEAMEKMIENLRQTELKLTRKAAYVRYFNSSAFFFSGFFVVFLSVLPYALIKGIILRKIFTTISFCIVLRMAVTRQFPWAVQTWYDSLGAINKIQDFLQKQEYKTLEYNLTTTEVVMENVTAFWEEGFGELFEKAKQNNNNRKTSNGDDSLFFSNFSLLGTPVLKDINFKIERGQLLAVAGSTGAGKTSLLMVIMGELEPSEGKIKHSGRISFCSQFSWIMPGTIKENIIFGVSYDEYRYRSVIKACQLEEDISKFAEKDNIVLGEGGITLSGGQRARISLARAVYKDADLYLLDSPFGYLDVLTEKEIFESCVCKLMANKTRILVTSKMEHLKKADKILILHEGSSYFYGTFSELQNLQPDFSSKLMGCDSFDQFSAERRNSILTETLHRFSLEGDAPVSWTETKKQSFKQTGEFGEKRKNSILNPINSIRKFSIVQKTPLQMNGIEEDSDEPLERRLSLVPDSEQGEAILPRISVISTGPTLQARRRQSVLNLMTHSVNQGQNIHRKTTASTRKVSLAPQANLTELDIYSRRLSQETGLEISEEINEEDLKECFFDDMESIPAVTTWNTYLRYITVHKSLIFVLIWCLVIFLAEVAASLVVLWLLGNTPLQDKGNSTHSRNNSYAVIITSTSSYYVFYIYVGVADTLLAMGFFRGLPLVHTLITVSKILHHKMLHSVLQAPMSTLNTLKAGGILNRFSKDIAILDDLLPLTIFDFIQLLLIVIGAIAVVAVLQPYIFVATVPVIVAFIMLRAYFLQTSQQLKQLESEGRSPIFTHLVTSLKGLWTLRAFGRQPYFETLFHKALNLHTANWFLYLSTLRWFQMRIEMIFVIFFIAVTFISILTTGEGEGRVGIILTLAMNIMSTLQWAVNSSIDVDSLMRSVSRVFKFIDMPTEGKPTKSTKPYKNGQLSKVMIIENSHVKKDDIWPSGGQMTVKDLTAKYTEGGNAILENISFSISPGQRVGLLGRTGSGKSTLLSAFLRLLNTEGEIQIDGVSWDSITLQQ
Protocol: Given the utility of co-potentiators as possible CF therapeutics for several minimal function CFTR mutants, a screen was done to identify novel co-potentiator scaffolds. Screening used FRT cells stably expressing W1282X-CFTR and the halide-sensitive EYFP-H148Q/I152L/F46L (YFP) that were treated for 24 hours with 3 μM VX-809 to increase CFTR1281 cell surface expression (Fig. 4A). Just prior to assay cells were treated for 10 min with test compounds at 25 μM together with 20 μM forskolin and 15 nM VX-770. CFTR channel activity was deduced from the initial rate of YFP fluorescence quenching in response to addition of iodide-substituted phosphate buffered saline. Primary screening of 120,000 drug-like synthetic small molecules identified 212 compounds giving channel activity >50% of that produced by forskolin, VX-770 and 20 μM ASP-11 (Fig. 4B). […] Each of these compounds added to VX-809-corrected FRT cells expressing W1282X-CFTR produced little current without VX-770 (Fig. 4E).
Figure 4 Novel co-potentiators identified by high-throughput screening. (A) Assay design. (B) Summary of screening workflow and results. (C) Chemical structures of novel co-potentiators identified by screening. (D) Representative short-circuit current data in FRT cells expressing W1282X-CFTR. Concentrations: 20 μM forskolin (fsk), 5 μM VX-770 (n = 3). (E) Effects of sequential addition of 20 μM forskolin followed by 20 μM of A-01, B-01, C-01 and D-01, and 5 μM of VX-770 in FRT cells expressing W1282X-CFTR. CFTRinh-172 was used at 10 μM in all experiments.
(§1) Short-circuit current was measured on cells cultured on Snapwell clear permeable supports (Corning) as described[10],[11]. Hemichambers were connected to a DVC-1000 voltage clamp (World Precision Instruments Inc., Sarasota, FL) via Ag/AgCl electrodes and 3 M KCl agar bridges for recording of the short-circuit current. For human airway epithelial cells, symmetrical HCO3^−-buffered solutions (in mM: 120 NaCl, 5 KCl, 1 MgCl2, 1 CaCl2, 5 Hepes, 25 NaHCO3, 10 glucose, pH 7.4) for basolateral and apical side were used. For FRT cells, the basolateral membrane was permeabilized with 250 μg/ml amphotericin B, and experiments were done with a chloride gradient using a HCO3^−-buffered solutions (Basolateral (mM): 120 NaCl, 5 KCl, 1 MgCl2, 1 CaCl2, 5 Hepes, 25 NaHCO3, 10 glucose, pH 7.4; apical (mM): 60 NaCl, 60 mM sodium gluconate, 5 KCl, 1 MgCl2, 1 CaCl2, 5 Hepes, 25 NaHCO3, 10 glucose, pH 7.4). All cells were equilibrated with 95% O2, 5% CO2 and maintained at 37 °C during experiments.

W1282X-CFTR [2] = molecular target: T1, W1282X-CFTR; test: Structure-activity testing of analogs in FRT cells expressing W1282X-CFTR
Protocol: To establish structure-activity relationships, 240 commercially available piperidinepyridoindole analogs and 160 pyrazoloquinoline analogs were tested in FRT cells expressing W1282X-CFTR. In general, the methoxy substituent on the 4-position (R^3) on the pyridoindole ring increased potency (compare A01 vs A534). N-methylation on the pyridoindole ring abolished activity (compare A534 vs A600). For substituent R^1 on the piperidine ring, substituted benzyl gave greatest activity (A061 and A662). Other R^1 substituents, including sulfonamide (A145), alkyl (A764) and carbocyclic (A714), reduced activity. Changing the benzylic carbon from methylene (CH2) to ketone (C=O) abolished activity (A815, A350 and A956).
For R^3, pyridine (D003), benzyl (D035) and substituted methyl-pyrazole (D086) abolished activity. […] The D123 pyrazoloquinoline with R^3 substituted with thiophene-quinoline heterocycle gave the best potency.

N1303K-CFTR = molecular target: T2, N1303K-CFTR (Homo sapiens, UniProt P13569, N1303K); test: Short-circuit current in FRT cells expressing N1303K-CFTR; settings: N1303K-CFTR FRT cells; for short-circuit current response when added after VX-770: 20 μM forskolin, 5 μM VX-770, then 20 μM compound
T2 construct: expressed in transfected cells
T2 sequence (P13569 whole entry N1303K): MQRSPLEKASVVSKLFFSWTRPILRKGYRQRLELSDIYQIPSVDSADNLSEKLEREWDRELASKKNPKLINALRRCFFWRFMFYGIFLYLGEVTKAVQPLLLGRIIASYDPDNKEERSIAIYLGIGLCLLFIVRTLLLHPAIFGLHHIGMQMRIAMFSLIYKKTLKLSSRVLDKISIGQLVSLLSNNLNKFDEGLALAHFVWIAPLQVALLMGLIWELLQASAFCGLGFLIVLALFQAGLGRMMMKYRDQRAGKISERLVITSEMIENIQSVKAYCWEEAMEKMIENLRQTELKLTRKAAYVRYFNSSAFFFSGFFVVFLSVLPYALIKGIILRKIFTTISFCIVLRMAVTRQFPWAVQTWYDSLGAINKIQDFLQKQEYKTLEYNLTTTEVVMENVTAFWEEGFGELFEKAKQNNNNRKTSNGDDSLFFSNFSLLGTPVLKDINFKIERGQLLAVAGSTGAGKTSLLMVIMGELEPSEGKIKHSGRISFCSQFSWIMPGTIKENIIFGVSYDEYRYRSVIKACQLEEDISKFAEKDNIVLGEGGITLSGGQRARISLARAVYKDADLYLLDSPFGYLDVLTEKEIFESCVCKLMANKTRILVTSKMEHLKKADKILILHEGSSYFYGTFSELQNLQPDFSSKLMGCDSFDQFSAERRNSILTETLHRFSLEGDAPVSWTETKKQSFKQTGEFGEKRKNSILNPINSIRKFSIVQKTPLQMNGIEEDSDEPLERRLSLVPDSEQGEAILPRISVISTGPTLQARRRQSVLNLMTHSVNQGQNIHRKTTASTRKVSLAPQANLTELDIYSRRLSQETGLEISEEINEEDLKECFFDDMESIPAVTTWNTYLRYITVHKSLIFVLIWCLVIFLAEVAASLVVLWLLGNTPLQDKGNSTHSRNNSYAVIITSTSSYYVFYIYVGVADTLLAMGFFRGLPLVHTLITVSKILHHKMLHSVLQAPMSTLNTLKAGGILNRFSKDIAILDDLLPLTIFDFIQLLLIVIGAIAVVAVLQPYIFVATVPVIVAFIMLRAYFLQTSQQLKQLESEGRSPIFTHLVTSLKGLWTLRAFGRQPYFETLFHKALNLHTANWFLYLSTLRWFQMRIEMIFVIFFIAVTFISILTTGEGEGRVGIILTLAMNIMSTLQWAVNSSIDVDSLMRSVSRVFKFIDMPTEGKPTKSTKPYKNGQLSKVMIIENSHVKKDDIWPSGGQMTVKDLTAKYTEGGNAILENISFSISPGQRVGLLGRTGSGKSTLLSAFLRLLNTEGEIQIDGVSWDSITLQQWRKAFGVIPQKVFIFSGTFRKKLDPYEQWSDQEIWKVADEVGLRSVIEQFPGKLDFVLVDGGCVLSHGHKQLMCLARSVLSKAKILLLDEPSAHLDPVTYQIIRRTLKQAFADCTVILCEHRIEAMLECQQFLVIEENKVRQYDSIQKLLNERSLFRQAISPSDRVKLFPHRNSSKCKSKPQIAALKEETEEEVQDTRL
Protocol: Based on prior studies[10],[11],[20], we hypothesized that distinct binding sites may be required to bind a potentiator and co-potentiator to rescue channel activity of CFTR mutants. We defined the potentiator VX-770 as a Class I compound, and co-potentiator ASP-11 as a Class II compound (Fig. 3A,D). Short-circuit current measurements in N1303K-CFTR-expressing FRT cells confirmed synergy when ASP-11 was added after VX-770 (Fig. 3Bi). […] In each experiment, CFTRinh-172 confirmed that current was from CFTR.
Figure 3 Definition of Class I and II CFTR potentiators. (A) Chemical structures of Class I and II potentiators. (B) Short-circuit current in FRT cells expressing N1303K-CFTR in response to forskolin and indicated potentiators. Concentrations: 20 μM forskolin, 5 μM VX-770, 20 μM ASP-11, 20 μM GLPG1837, 20 μM P2, 20 μM P3, 20 μM P5, 20 μM W1282Xpot-C01, and 10 μM CFTRinh-172. C. Short-circuit current in FRT cells expressing Q1313X-CFTR in response to forskolin and indicated potentiators. Concentrations: as in panel B, and 25 μM apigenin. (D) Summary of relative N1303K-CFTR activation in response to combinations of Class I and Class II potentiators. Mean ± S.E.M., n = 3. TEXT PRINTED IN THE PICTURE: (D) VX-770: N1303K-CFTR: P5: 1% ±1%; N1303K-CFTR: GLPG 1837: 10% ±5%; N1303K-CFTR: ASP-11: 100% ±3%; N1303K-CFTR: apigenin: 100% ±5% | (D) P5: N1303K-CFTR: VX-770: 1% ±1%; N1303K-CFTR: GLPG 1837: 2% ±2%; N1303K-CFTR: ASP-11: 52% ±5%; N1303K-CFTR: apigenin: 56% ±5% | (D) GLPG 1837: N1303K-CFTR: VX-770: 0% ±5%; N1303K-CFTR: P5: 2% ±2%; N1303K-CFTR: ASP-11: 100% ±4%; N1303K-CFTR: apigenin: 98% ±5% | (D) ASP-11: N1303K-CFTR: VX-770: 100% ±3%; N1303K-CFTR: P5: 47% ±4%; N1303K-CFTR: GLPG 1837: 100% ±5%; N1303K-CFTR: apigenin: 7% ±3% | (D) apigenin: N1303K-CFTR: VX-770: 100% ±5%; N1303K-CFTR: P5: 50% ±5%; N1303K-CFTR: GLPG 1837: 100% ±5%; N1303K-CFTR: ASP-11: 5% ±2% DOUBTS OF THE COPYIST ABOUT THIS PICTURE: Panel D is a matrix of pairs of substances (row substance combined with column substance). The picture prints no name for the measure, only % values and a 0%–100% colour scale. / The print in panel D is small, so 3, 5, 6 and 8 are hard to tell apart in these values. / VX-770 / GLPG 1837: ±5% could be ±3% / VX-770 / ASP-11: ±3% could be ±5% / VX-770 / apigenin: ±5% could be ±3% / P5 / ASP-11: 52% ±5%, digits uncertain / P5 / apigenin: 56% could be 58%, and ±5% is uncertain / GLPG 1837 / VX-770: 0% ±5%, error digit uncertain / GLPG 1837 / apigenin: 98% could be 96%, and ±5% is uncertain / ASP-11 / VX-770: ±3% could be ±5% / ASP-11 / GLPG 1837: ±5% could be ±3% / ASP-11 / apigenin: 7% ±3%, error digit uncertain / apigenin / VX-770: ±5% could be ±3% / apigenin / P5: 50% ±5%, digits uncertain / apigenin / GLPG 1837: ±5% could be ±3% / apigenin / ASP-11: 5% ±2%, the 5 is uncertain
(§2) Figures 5C,D show data in N1303K- and Q1313X-expressing FRT cells.
as §1

Q1313X-CFTR = molecular target: T3, Q1313X-CFTR (Homo sapiens, UniProt P13569); test: Short-circuit current in FRT cells expressing Q1313X-CFTR; settings: Q1313X-CFTR FRT cells, 20 μM forskolin; for short-circuit current response when added after VX-770: 5 μM VX-770, 20 μM P2, P3, P5, ASP-11, 25 μM apigenin
T3 construct: expressed in transfected cells
T3 sequence (P13569 1-1312 limits assumed): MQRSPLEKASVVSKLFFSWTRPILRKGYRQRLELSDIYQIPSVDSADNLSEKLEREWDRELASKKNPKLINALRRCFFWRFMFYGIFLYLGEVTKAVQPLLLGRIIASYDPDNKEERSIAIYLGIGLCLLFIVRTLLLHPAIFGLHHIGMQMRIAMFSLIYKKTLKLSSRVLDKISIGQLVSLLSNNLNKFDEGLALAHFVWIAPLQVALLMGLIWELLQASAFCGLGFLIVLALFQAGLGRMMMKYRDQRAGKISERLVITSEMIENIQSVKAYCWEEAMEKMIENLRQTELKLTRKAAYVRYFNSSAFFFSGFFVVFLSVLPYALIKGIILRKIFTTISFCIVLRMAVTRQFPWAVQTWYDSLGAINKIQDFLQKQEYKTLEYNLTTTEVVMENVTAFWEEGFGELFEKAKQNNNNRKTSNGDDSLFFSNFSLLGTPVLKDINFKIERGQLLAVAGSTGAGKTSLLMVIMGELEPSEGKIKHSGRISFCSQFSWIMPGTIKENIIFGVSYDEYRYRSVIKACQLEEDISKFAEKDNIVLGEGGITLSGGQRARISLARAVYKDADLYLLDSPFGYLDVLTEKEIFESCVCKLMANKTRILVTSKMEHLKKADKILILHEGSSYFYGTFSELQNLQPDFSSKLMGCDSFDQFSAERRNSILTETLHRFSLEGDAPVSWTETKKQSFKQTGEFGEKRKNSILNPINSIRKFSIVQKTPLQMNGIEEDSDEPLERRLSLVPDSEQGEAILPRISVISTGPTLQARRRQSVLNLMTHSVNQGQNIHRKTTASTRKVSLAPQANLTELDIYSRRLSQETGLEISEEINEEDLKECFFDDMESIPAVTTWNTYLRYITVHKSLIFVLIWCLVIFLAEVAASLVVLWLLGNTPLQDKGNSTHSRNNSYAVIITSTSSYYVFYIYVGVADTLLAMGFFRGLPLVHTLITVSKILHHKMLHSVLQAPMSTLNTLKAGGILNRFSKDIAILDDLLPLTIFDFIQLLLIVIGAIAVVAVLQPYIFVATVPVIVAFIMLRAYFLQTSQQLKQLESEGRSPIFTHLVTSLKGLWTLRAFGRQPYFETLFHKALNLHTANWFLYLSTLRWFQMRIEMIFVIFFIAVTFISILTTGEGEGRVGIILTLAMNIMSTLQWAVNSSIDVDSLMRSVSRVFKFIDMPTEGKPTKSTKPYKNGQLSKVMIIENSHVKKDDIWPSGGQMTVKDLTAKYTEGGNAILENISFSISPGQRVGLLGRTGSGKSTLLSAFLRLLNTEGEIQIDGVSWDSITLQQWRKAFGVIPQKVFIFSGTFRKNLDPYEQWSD
Protocol: As shown in Fig. 1C and summarized in Fig. 2, ASP-11 acted in synergy with VX-770 to increase chloride current in FRT cells expressing the NBD2 mutations I1234del- and Q1313X-CFTR by ~3–9-fold compared to VX-770. I1234del- and Q1313X-CFTR-expressing cells were also treated with VX-809 for 24 hours (to consider the effect of available CFTR therapeutics) with 2–3-fold greater currents observed.
Studies on FRT cells expressing Q1313X-CFTR produced similar data (Fig. 3C).
as §2, §1

[3] = Table 1, 100% Vmax corresponds to 20 μM ASP-11
[4] = Table 1, piperidine-pyridoindole analogs

With O=C(CN1C(=O)CC(c2cccs2)=Nc2ccccc21)NCc1ccc(Cl)cc1 [CP-B01] the “increase in VX-770 current” value (W1282X-CFTR [1]) was ~ 6 fold and the EC50 (W1282X-CFTR [1]) was 5 µM.
For CCCS(=O)(=O)N1CCCc2ccc(NS(=O)(=O)c3cccs3)cc21 [CP-C01], the “increase in VX-770 current” value (W1282X-CFTR [1]) was ~ 6 fold and the EC50 (W1282X-CFTR [1]) was 8 µM.
COc1cccc(CN2CCC3(CC2)NCCc2c3[nH]c3ccc(OC)cc23)c1 [Compound A01] was tested, and the “Relative Vmax (%)” value (W1282X-CFTR [2]; [3]) was 100%, the EC50 (W1282X-CFTR [2]; [4]) was 10 µM and the “increase in VX-770 current” value (W1282X-CFTR [1]) was ~ 6 fold. It also gave an EC50 (W1282X-CFTR [1]) of 10 µM.
COc1ccc2[nH]c3c(c2c1)CCNC31CCN(S(C)(=O)=O)CC1 [Compound A145] was tested, and the “Relative Vmax (%)” value (W1282X-CFTR [2]; [3]) was 7% and the EC50 (W1282X-CFTR [2]; [4]) was over 30 µM.
For c1ccc(CN2CCC3(CC2)NCCc2c3[nH]c3ccccc23)cc1 [Compound A357], the “Relative Vmax (%)” value (W1282X-CFTR [2]; [3]) was 31% and the EC50 (W1282X-CFTR [2]; [4]) was 16 µM.
In the case of COc1cccc(CN2CCC3(CC2)NCCc2c3[nH]c3ccccc23)c1 [Compound A534], the “Relative Vmax (%)” value (W1282X-CFTR [2]; [3]) is reported as 24% and the EC50 (W1282X-CFTR [2]; [4]) is reported as 13 µM.
With COc1cccc(CN2CCC3(CC2)c2[nH]c4ccccc4c2CCN3C)c1 [Compound A600] the “Relative Vmax (%)” value (W1282X-CFTR [2]; [3]) was 4% and the EC50 (W1282X-CFTR [2]; [4]) was over 30 µM.
With COc1ccc2[nH]c3c(c2c1)CCNC31CCN(Cc2ccc(F)c(F)c2)CC1 [Compound A662] the “Relative Vmax (%)” value (W1282X-CFTR [2]; [3]) was 100% and the EC50 (W1282X-CFTR [2]; [4]) was 2.6 µM.
In the case of COc1ccc2[nH]c3c(c2c1)CCNC31CCN(C2CCCCC2)CC1 [Compound A714], the “Relative Vmax (%)” value (W1282X-CFTR [2]; [3]) is reported as 18% and the EC50 (W1282X-CFTR [2]; [4]) is reported as over 30 µM.
In the case of COc1ccc2[nH]c3c(c2c1)CCNC31CCN(C)CC1 [Compound A764], the “Relative Vmax (%)” value (W1282X-CFTR [2]; [3]) is reported as 6% and the EC50 (W1282X-CFTR [2]; [4]) is reported as over 30 µM.
COc1ccc2cc3c(N)nn(C(=O)c4ccccc4Cl)c3nc2c1 [Compound D001] was tested, and the “Relative Vmax (%)” value (W1282X-CFTR [2]; Table 2, 100% Vmax corresponds to 20 μM ASP-11) was 90%, the EC50 (W1282X-CFTR [2]; Table 2, pyrazoloquinoline analogs) was 15 µM and the “increase in VX-770 current” value (W1282X-CFTR [1]) was ~ 6 fold. For the same compound, the EC50 (W1282X-CFTR [1]) was 15 µM.
In the case of CC(C)c1ccc(NC(=O)C(c2ccccc2)N(C)C(=O)Cc2c[nH]c3ccccc23)cc1 (stereo not drawn) [Compound P2], the “short-circuit current response when added after VX-770” value (N1303K-CFTR) is reported as “did not further increase current” and the “short-circuit current response when added after VX-770” value (Q1313X-CFTR) is reported as “did not elevate current”.
In the case of CCN(c1ccccc1)S(=O)(=O)c1ccc2[nH]cc(C(=O)NCc3ccccc3OC)c(=O)c2c1 [Compound P3], the “short-circuit current response when added after VX-770” value (N1303K-CFTR) is reported as “did not further increase current” and the “short-circuit current response when added after VX-770” value (Q1313X-CFTR) is reported as “did not elevate current”.
NC(=O)c1c(NC(=O)c2ccccc2Cl)sc2c1CCCC2 [Compound P5] was tested, and the “short-circuit current response when added after VX-770” value (N1303K-CFTR) was “did not further increase current” and the “short-circuit current response when added after VX-770” value (Q1313X-CFTR) was “did not elevate current”.
Cc1cc(C)cc(N(Cc2ccc(Cl)cc2)S(=O)(=O)c2cccn3c(C)nnc23)c1 [W1282Xpot-C01] was tested, and the “activation by two Class II potentiators added together” value (N1303K-CFTR; 20 μM W1282Xpot-C01 and 20 μM ASP-11, no Class I potentiator) was “little activation” and the “short-circuit current response when added after VX-770” value (N1303K-CFTR) was “activated N1303K-CFTR”.
O=c1cc(-c2ccc(O)cc2)oc2cc(O)cc(O)c12 [apigenin] was tested, and the “short-circuit current response when added after VX-770” value (Q1313X-CFTR) was “showed synergy” and the “short-circuit current response when added after GLPG1837” value (Q1313X-CFTR; 20 μM GLPG1837) was “showed synergy”.
